Where “and” joins values, the source holds several entries; their conditions need not be identical. Equal values may be shown once.

The target of one test is T1, FKBP12^F36V-Nluc (Homo sapiens, UniProt P62942, F37V).
T1 construct: expressed in transfected cells; host or cells: 293FT
In words: FKBP12F36V-Nluc dual luciferase assay (293FT). Particulars: 24 h; for DMSO-normalized ratio of Nluc/Fluc signal: 293FT FKBP12F36V-Nluc. It is filed as cell-based. Put shortly:
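293FT cells expressing FKBP12^WT-Nluc or FKBP12^F36V-Nluc with Fluc were treated with compound for 24 h at 37 °C. Fluc, then Nluc, luminescence was read with Dual-Glo reagents. Values are DMSO-normalised Nluc/Fluc ratios.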

Test [1] has as its system PATU-8902 LACZ-FKBP12^F36V clone. In words: Quantitative MS proteomics, PATU-8902 LACZ-FKBP12F36V clone. It is filed as cell-based, Homo sapiens. The settings on record: for TMT intensity per TMT channel: PATU-8902 LACZ-FKBP12F36V samples, biological replicates; for log2 (Fold change) compared to DMSO: 500 nM, 4 h. The protocol: Cell pellets from PATU-8902 and EWS502 cells were lysed using 8 M urea, 200 mM 4-(2-hydroxyethyl)-1-piperazinepropanesulfonic acid (EPPS) at pH 8.5 with protease inhibitors. Samples were further homogenized and DNA was sheered via sonication using a probe sonicator (20 × 0.5 s pulses; level 3). Total protein was determined using a BCA assay and stored at −80 °C until future use. A total of 100 µg of protein was aliquoted for each condition and TMT channel for further downstream processing. Protein extracts were reduced using 10 mM dithiothreitol (DTT) for 30 min at room temperature. Next, samples were alkylated with 20 mM iodoacetamide for 45 min in the dark at room temperature. To facilitate the removal of incompatible reagents, proteins were precipitated using chloroform methanol. Briefly, to 100 µL of each sample, 400 µL of methanol was added, followed by 100 µL of chloroform with thorough vortexing. Next, 300 µL of HPLC grade water was added and samples were vortexed thoroughly. Each sample was centrifuged at 14,000 × g for 5 min at room temperature. The upper aqueous layer was removed and the protein pellet was washed twice with methanol and centrifuged at 14,000 × g for 5 min at room temperature. Protein pellets were resolubilized in 200 mM EPPS buffer and digested overnight with Lys-C (1:100, enzyme:protein ratio) at room temperature. The next day, trypsin (1:100 ratio) was added and incubated at 37 °C for an additional 6 h in a ThermoMixer set to 1000 RPM.
To each digested sample, 30% anhydrous acetonitrile was added and 100 µg of peptides were labeled using 200 µg of TMT reagent (TMT1-TMT11). Following labeling, a 5% hydroxylamine solution was used to quench excess TMT reagent. To equalize protein loading, a ratio check was performed by pooling 2 µg of each TMT-labeled sample. Samples were pooled and desalted using in-house packed C18 StageTips and analyzed by LC-MS/MS. Normalization factors were calculated from this label check, samples were mixed 1:1 across all TMT channels and desalted using a 100 mg Sep-Pak solid phase extraction cartridge. Eluted pooled peptides were further fractionated with basic-pH reverse-phase (bRP) HPLC using an Agilent 300 extend C18 column and collected into a 96 deep-well plate. Samples were consolidated into 24 fractions, and 12 nonadjacent fraction were desalted using StageTips prior to analyses using LC-MS/MS[35]–[37].
All mass spectrometry data was acquired using an Orbitrap Fusion mass spectrometer in-line with a Proxeon NanoLC-1000 UHPLC system. Peptides were separated using an in-house 100 µm capillary column packed with 40 cm of Accucore 150 resin (2.6 µm, 150 Å) (Thermo Fisher Scientific) using a 180 min LC gradient per fraction. Eluted peptides were acquired using synchronous precursor selection (SPS-MS3) method for TMT quantification. Briefly, MS1 spectra were acquired at 120 K resolving power with a maximum of 50 ms in the Orbitrap. MS2 spectra were acquired by selecting the top ten most abundant features via collisional induced dissociation (CID) in the ion trap using an automatic gain control (AGC) of 15 K, quadrupole isolation width of 0.7 m/z and a maximum ion time of 100 ms. For MS3 acquisition, a synchronous precursor selection of ten fragment ions was acquired with an AGC of 150 K for 150 ms and a normalized collision energy of 55.
All acquired raw data were converted to mzXML using Raw File Reader (v3.0.77). Spectra were processed using Comet (2019.01.5)[39]–[41], search results were filtered using the LDA function MASS Package in R, and data were processed using an in-house informatics pipeline[42]–[44]. Custom code was not developed in this study. Briefly, peptide spectral libraries were first filtered to a peptide false discovery rate (FDR) of less than 1% using linear discriminant analysis employing a target decoy strategy. […]

Test [2] deals with PATU-8902 FKBP12^F36V-KRAS^G12V; KRAS^-/- clone. Nature of the test: Antiproliferation, PATU-8902 FKBP12F36V-KRASG12V; KRAS-/- clone, 2D-monolayer (CellTiter-Glo). In kind it is cell-based. Background: ATP-based viability assays read luminescence as a measure of living cells.
Setting [3] is: log10[compound] (M) -5.69897, replicate values.
Where [4] appears, read: log10[compound] (M) -6.19897, replicate values.
Setting [5] is: log10[compound] (M) -6.69897, replicate values.
Where [6] appears, read: log10[compound] (M) -7.19897, replicate values.
Setting [7] is: log10[compound] (M) -7.69897, replicate values.
Where [8] appears, read: log10[compound] (M) -8.19897, replicate values.
Setting [9] is: log10[compound] (M) -8.69897, replicate values.
The mark [10] stands for this setting: log10[compound] (M) -9.19897, replicate values.
Setting [11] is: log10[compound] (M) -9.69897, replicate values.
Where [12] appears, read: log10[compound] (M) -10.199, replicate values.

T1 sequence (P62942 2-108 F37V limits assumed): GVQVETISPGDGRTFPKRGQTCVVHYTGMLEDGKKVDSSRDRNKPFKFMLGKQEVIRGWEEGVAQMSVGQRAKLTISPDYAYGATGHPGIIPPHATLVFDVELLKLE

On to `CC[C@H](C(=O)N1CCCC[C@H]1C(=O)O[C@H](CCc1ccc(OC)c(OC)c1)c1ccccc1OCC(=O)NCCCCCCOc1cccc2c1C(=O)N(C1CCC(=O)NC1=O)C2=O)c1cc(OC)c(OC)c(OC)c1` (stereo partly shown) [dTAG-13], for which the “DMSO-normalized ratio of Nluc/Fluc signal” value on FKBP12^F36V-Nluc (log10[compound] (M) -5.30103, single replicates) is 16.9532 and 13.2908 and 14.9671 and 13.7454; at FKBP12^F36V-Nluc (log10[compound] (M) -5.80103, single replicates), 7.24 and 7.457 and 10.3426 and 8.644; at FKBP12^F36V-Nluc (log10[compound] (M) -6.30103, single replicates) it was 8.366 and 8.818 and 6.862 and 6.126; at FKBP12^F36V-Nluc (log10[compound] (M) -6.80103, single replicates), 7.33 and 5.168 and 6.329 and 6.447; on FKBP12^F36V-Nluc (log10[compound] (M) -7.30103, single replicates) it was 10.0232 and 16.06 and 10.9144 and 8.614; on FKBP12^F36V-Nluc (log10[compound] (M) -7.80103, single replicates), 17.0708 and 14.82 and 12.6407 and 10.0196. In addition, the “DMSO-normalized ratio of Nluc/Fluc signal” value at FKBP12^F36V-Nluc (log10[compound] (M) -8.30103, single replicates) was 27.5948 and 22.2337 and 28.8782 and 22.7323; on FKBP12^F36V-Nluc (log10[compound] (M) -8.80103, single replicates), 41.1668 and 39.5241 and 40.8834 and 34.8862; at FKBP12^F36V-Nluc (log10[compound] (M) -9.30103, single replicates), 85.0231 and 74.0396 and 80.0349 and 60.0307; at FKBP12^F36V-Nluc (log10[compound] (M) -9.80103, single replicates), 71.5411 and 59.8417 and 77.3242 and 60.4301. Moreover, the “TMT intensity per TMT channel” value in test [1] (protein CDK12) is 2762.51 and 2603.47; in test [1] (protein INCENP), 2716.3 and 2681.24; in test [1] (protein IRS2), 372.779 and 399.852; in test [1] (protein SLC12A2), 1746.63 and 1711.2; in test [1] (protein SLC15A4), 223.037 and 230.942. In addition, the DMSO-normalized antiproliferation was 10.9257 and 6.898 and 8.446 and 8.371 in test [2] (setting [3]); 11.932 and 10.4461 and 13.2552 and 12.7525 in test [2] (setting [4]); 9.655 and 9.596 and 10.3089 and 13.0861 in test [2] (setting [5]); 15.4438 and 14.4907 and 17.4502 and 15.1305 in test [2] (setting [6]); 47.914 and 33.2029 and 20.7399 and 31.0479 in test [2] (setting [7]); 58.9433 and 77.5971 and 44.7261 and 57.0103 in test [2] (setting [8]). Also, the DMSO-normalized antiproliferation in test [2] (setting [9]) is 103.967 and 74.9703 and 94.8172 and 78.6857; in test [2] (setting [10]), 94.4313 and 115.825 and 99.9239 and 85.5403; in test [2] (setting [11]), 101.606 and 85.9324 and 94.5986 and 110.248; in test [2] (setting [12]) it was 88.9654 and 100.345 and 66.0988 and 85.3394.

Take `CCC(C(=O)N1CCCCC1C(=O)OC(CCc1ccc(OC)c(OC)c1)c1ccccc1OCC(=O)NCCCCCCC(=O)NC(C(=O)N1CC(O)CC1C(=O)NC(C)c1ccc(-c2scnc2C)cc1)C(C)(C)C)c1cc(OC)c(OC)c(OC)c1` (stereo not shown) [dTAG^V-1-NEG]: on FKBP12^F36V-Nluc (293FT), the “Degradation of FKBP12F36V-Nluc (in words)” value was “no activity”. Moreover, the “TMT intensity per TMT channel” value is 2630.52 and 3108.44 and 2718.26 in test [1] (protein CDK12); 2713.73 and 2977.66 and 2766.34 in test [1] (protein INCENP); 358.215 and 458.696 and 391.289 in test [1] (protein IRS2); 1702.64 and 1563.99 and 1824.49 in test [1] (protein SLC12A2); 247.423 and 199.538 and 213.085 in test [1] (protein SLC15A4). Also, the “log2 (Fold change) compared to DMSO” value in test [1] (protein CRY1) is given as -0.9118; in test [1] (protein LITAF) it was -0.2196; in test [1] (protein MPRIP), -0.5841; in test [1] (protein RIOX1) it was 0.1069; in test [1] (protein SGTA) it was 0.1473. The DMSO-normalized antiproliferation in test [2] (setting [3]) is 4.32 and 6.388 and 6.155 and 5.991; in test [2] (setting [4]) it was 32.3489 and 36.7324 and 47.9927 and 46.6785; in test [2] (setting [5]), 83.4764 and 91.9957 and 98.0856 and 85.7695; in test [2] (setting [6]) it was 140.095 and 133.654 and 96.5457 and 87.6299; in test [2] (setting [7]) it was 124.703 and 107.666 and 124.781 and 104.227; in test [2] (setting [8]) it was 100.524 and 126.087 and 110.25 and 83.3074. Besides, the DMSO-normalized antiproliferation in test [2] (setting [9]) was 126.672 and 110.141 and 94.4012 and 101.209; in test [2] (setting [10]) it was 119.782 and 117.251 and 170.771 and 120.652; in test [2] (setting [11]), 93.2126 and 100.867 and 84.0534 and 89.6654; in test [2] (setting [12]), 113.321 and 95.7713 and 117.376 and 100.982.

(Values after PMC7501296, “Rapid and direct control of target protein levels with VHL-recruiting dTAG molecules” (Nature Communications, 2020).)
